Source: ChEMBL document CHEMBL2069290, “Synthesis and biological evaluation of novel oxindole derivatives for imaging neurofibrillary tangles in Alzheimer's disease” (Bioorg Med Chem Lett, 2012)
Calls of active or inactive are those of the source. The calls are words filed in the database; no cut-off is given here.

Legend:
[1] = target: Amyloid-beta precursor protein (Homo sapiens, UniProt P05067); assay: Binding affinity to amyloid beta(1 to 42) aggregates after 30 mins by Thioflavin-S-based fluorescence assay
Sequence of Amyloid-beta precursor protein (P05067 whole entry): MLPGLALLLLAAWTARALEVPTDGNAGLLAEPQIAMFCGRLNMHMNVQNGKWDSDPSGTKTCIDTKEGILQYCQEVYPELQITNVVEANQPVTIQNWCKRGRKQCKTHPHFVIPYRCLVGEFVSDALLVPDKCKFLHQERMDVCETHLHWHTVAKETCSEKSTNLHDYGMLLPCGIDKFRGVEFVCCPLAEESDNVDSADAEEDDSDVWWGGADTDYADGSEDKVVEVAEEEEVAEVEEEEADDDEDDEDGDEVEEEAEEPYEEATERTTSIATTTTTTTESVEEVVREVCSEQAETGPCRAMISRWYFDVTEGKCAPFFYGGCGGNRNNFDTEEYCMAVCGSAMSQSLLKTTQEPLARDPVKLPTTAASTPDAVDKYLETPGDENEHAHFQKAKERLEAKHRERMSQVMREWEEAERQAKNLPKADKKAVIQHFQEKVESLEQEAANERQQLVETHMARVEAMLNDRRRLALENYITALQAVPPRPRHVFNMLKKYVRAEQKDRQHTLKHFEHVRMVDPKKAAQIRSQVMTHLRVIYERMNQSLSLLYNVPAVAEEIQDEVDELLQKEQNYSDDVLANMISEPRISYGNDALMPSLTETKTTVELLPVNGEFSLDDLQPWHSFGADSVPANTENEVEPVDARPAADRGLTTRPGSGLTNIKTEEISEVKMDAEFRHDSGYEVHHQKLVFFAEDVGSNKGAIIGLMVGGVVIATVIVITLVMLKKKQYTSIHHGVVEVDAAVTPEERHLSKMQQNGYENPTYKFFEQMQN

Homo sapiens [2] = species: Homo sapiens; assay: Selectivity ratio of Ki for amyloid beta(1 to 42) to Ki for human Tau
Homo sapiens [3] = species: Homo sapiens; assay: Binding affinity to neurofibrillary tangles in entorhinal cortex of alzheimer disease patient after 10 mins by Thioflavin-S-based fluorescence microscopy; assay type: tissue-based
[4] = target: Microtubule-associated protein tau (Homo sapiens, UniProt P10636); assay: Binding affinity to human Tau aggregates after 30 mins by Thioflavin-S-based fluorescence assay
Sequence of Microtubule-associated protein tau (P10636 whole entry): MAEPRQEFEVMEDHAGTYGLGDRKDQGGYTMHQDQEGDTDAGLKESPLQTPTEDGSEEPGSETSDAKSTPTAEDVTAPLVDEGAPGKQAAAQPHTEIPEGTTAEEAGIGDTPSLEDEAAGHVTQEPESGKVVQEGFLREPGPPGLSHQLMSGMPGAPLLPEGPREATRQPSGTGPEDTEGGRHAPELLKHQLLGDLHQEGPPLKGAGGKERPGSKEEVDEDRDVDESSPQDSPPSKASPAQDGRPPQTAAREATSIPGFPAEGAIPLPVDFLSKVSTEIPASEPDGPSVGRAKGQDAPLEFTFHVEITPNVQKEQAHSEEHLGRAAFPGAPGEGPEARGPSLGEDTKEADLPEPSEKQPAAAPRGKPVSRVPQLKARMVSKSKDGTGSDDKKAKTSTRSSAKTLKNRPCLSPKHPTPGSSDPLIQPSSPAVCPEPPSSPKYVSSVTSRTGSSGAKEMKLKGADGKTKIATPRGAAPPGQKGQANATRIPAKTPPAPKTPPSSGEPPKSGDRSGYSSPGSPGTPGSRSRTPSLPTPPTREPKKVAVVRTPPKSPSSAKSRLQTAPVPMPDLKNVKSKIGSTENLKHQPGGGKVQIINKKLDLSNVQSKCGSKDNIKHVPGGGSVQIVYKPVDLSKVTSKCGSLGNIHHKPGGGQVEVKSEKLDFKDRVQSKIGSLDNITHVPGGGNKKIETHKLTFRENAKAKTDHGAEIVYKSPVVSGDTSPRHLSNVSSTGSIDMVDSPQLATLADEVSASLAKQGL

Liver [5] = assay: Biodistribution in ddY mouse liver at 3.3 to 6.7 kBq, iv after 10 mins by gamma counting; assay type: ADME, organism-based; conditions: in vivo
Blood [6] = assay: Biodistribution in ddY mouse blood at 3.3 to 6.7 kBq, iv after 10 mins by gamma counting; assay type: ADME, organism-based; conditions: in vivo
Pancreas [7] = assay: Biodistribution in ddY mouse pancreas at 3.3 to 6.7 kBq, iv after 30 mins by gamma counting; assay type: ADME, organism-based; conditions: in vivo, 0.5 h
Kidney [8] = assay: Biodistribution in ddY mouse kidney at 3.3 to 6.7 kBq, iv after 2 mins by gamma counting; assay type: ADME, organism-based; conditions: in vivo
Spleen [9] = assay: Biodistribution in ddY mouse spleen at 3.3 to 6.7 kBq, iv after 60 mins by gamma counting; assay type: ADME, organism-based; conditions: in vivo, 1 h
Pancreas [10] = assay: Biodistribution in ddY mouse pancreas at 3.3 to 6.7 kBq, iv after 60 mins by gamma counting; assay type: ADME, organism-based; conditions: in vivo, 1 h
Kidney [11] = assay: Biodistribution in ddY mouse kidney at 3.3 to 6.7 kBq, iv after 30 mins by gamma counting; assay type: ADME, organism-based; conditions: in vivo, 0.5 h
Blood [12] = assay: Biodistribution in ddY mouse blood at 3.3 to 6.7 kBq, iv after 60 mins by gamma counting; assay type: ADME, organism-based; conditions: in vivo, 1 h
Spleen [13] = assay: Biodistribution in ddY mouse spleen at 3.3 to 6.7 kBq, iv after 10 mins by gamma counting; assay type: ADME, organism-based; conditions: in vivo
Heart [14] = assay: Biodistribution in ddY mouse heart at 3.3 to 6.7 kBq, iv after 30 mins by gamma counting; assay type: ADME, organism-based; conditions: in vivo, 0.5 h
Spleen [15] = assay: Biodistribution in ddY mouse spleen at 3.3 to 6.7 kBq, iv after 2 mins by gamma counting; assay type: ADME, organism-based; conditions: in vivo
Brain [16] = assay: Biodistribution in ddY mouse brain at 3.3 to 6.7 kBq, iv after 60 mins by gamma counting; assay type: ADME, organism-based; conditions: in vivo, 1 h
Blood [17] = assay: Biodistribution in ddY mouse blood at 3.3 to 6.7 kBq, iv after 2 mins by gamma counting; assay type: ADME, organism-based; conditions: in vivo
Brain [18] = assay: Biodistribution in ddY mouse brain at 3.3 to 6.7 kBq, iv after 2 mins by gamma counting; assay type: ADME, organism-based; conditions: in vivo
Liver [19] = assay: Biodistribution in ddY mouse liver at 3.3 to 6.7 kBq, iv after 30 mins by gamma counting; assay type: ADME, organism-based; conditions: in vivo, 0.5 h
Heart [20] = assay: Biodistribution in ddY mouse heart at 3.3 to 6.7 kBq, iv after 2 mins by gamma counting; assay type: ADME, organism-based; conditions: in vivo
Liver [21] = assay: Biodistribution in ddY mouse liver at 3.3 to 6.7 kBq, iv after 2 mins by gamma counting; assay type: ADME, organism-based; conditions: in vivo
Kidney [22] = assay: Biodistribution in ddY mouse kidney at 3.3 to 6.7 kBq, iv after 60 mins by gamma counting; assay type: ADME, organism-based; conditions: in vivo, 1 h
Spleen [23] = assay: Biodistribution in ddY mouse spleen at 3.3 to 6.7 kBq, iv after 30 mins by gamma counting; assay type: ADME, organism-based; conditions: in vivo, 0.5 h
Kidney [24] = assay: Biodistribution in ddY mouse kidney at 3.3 to 6.7 kBq, iv after 10 mins by gamma counting; assay type: ADME, organism-based; conditions: in vivo
Stomach [25] = assay: Biodistribution in ddY mouse stomach assessed per organ at 3.3 to 6.7 kBq, iv after 60 mins by gamma counting; assay type: ADME, organism-based; conditions: in vivo, 1 h
Intestine [26] = assay: Biodistribution in ddY mouse intestine at 3.3 to 6.7 kBq, iv after 10 mins by gamma counting; assay type: ADME, organism-based; conditions: in vivo
Pancreas [27] = assay: Biodistribution in ddY mouse pancreas at 3.3 to 6.7 kBq, iv after 2 mins by gamma counting; assay type: ADME, organism-based; conditions: in vivo
Brain [28] = assay: Biodistribution in ddY mouse brain at 3.3 to 6.7 kBq, iv after 30 mins by gamma counting; assay type: ADME, organism-based; conditions: in vivo, 0.5 h
Stomach [29] = assay: Biodistribution in ddY mouse stomach assessed per organ at 3.3 to 6.7 kBq, iv after 2 mins by gamma counting; assay type: ADME, organism-based; conditions: in vivo
Heart [30] = assay: Biodistribution in ddY mouse heart at 3.3 to 6.7 kBq, iv after 10 mins by gamma counting; assay type: ADME, organism-based; conditions: in vivo
Blood [31] = assay: Biodistribution in ddY mouse blood at 3.3 to 6.7 kBq, iv after 30 mins by gamma counting; assay type: ADME, organism-based; conditions: in vivo, 0.5 h
Stomach [32] = assay: Biodistribution in ddY mouse stomach assessed per organ at 3.3 to 6.7 kBq, iv after 30 mins by gamma counting; assay type: ADME, organism-based; conditions: in vivo, 0.5 h
Intestine [33] = assay: Biodistribution in ddY mouse intestine at 3.3 to 6.7 kBq, iv after 2 mins by gamma counting; assay type: ADME, organism-based; conditions: in vivo
Pancreas [34] = assay: Biodistribution in ddY mouse pancreas at 3.3 to 6.7 kBq, iv after 10 mins by gamma counting; assay type: ADME, organism-based; conditions: in vivo
Intestine [35] = assay: Biodistribution in ddY mouse intestine at 3.3 to 6.7 kBq, iv after 30 mins by gamma counting; assay type: ADME, organism-based; conditions: in vivo, 0.5 h
Heart [36] = assay: Biodistribution in ddY mouse heart at 3.3 to 6.7 kBq, iv after 60 mins by gamma counting; assay type: ADME, organism-based; conditions: in vivo, 1 h
Stomach [37] = assay: Biodistribution in ddY mouse stomach assessed per organ at 3.3 to 6.7 kBq, iv after 10 mins by gamma counting; assay type: ADME, organism-based; conditions: in vivo
Intestine [38] = assay: Biodistribution in ddY mouse intestine at 3.3 to 6.7 kBq, iv after 60 mins by gamma counting; assay type: ADME, organism-based; conditions: in vivo, 1 h
Brain [39] = assay: Ratio of drug uptake in ddY mouse brain after 2 mins to drug uptake in ddY mouse brain after 30 mins; assay type: ADME, tissue-based; conditions: in vivo
Liver [40] = assay: Biodistribution in ddY mouse liver at 3.3 to 6.7 kBq, iv after 60 mins by gamma counting; assay type: ADME, organism-based; conditions: in vivo, 1 h
Brain [41] = assay: Biodistribution in ddY mouse brain at 3.3 to 6.7 kBq, iv after 10 mins by gamma counting; assay type: ADME, organism-based; conditions: in vivo
Homo sapiens [42] = species: Homo sapiens; assay: Selectivity ratio of EC50 for amyloid beta(1 to 42) to EC50 for human Tau

Row | Structure (SMILES) | Drug uptake (Liver [5]) | Drug uptake (Blood [6]) | Drug uptake (Pancreas [7]) | Drug uptake (Kidney [8]) | Drug uptake (Spleen [9]) | Drug uptake (Pancreas [10]) | Drug uptake (Kidney [11]) | Drug uptake (Blood [12]) | Drug uptake (Spleen [13]) | Drug uptake (Heart [14]) | Drug uptake (Spleen [15]) | Drug uptake (Brain [16]) | Drug uptake (Blood [17]) | Drug uptake (Brain [18]) | Drug uptake (Liver [19]) | Drug uptake (Heart [20]) | Drug uptake (Liver [21]) | Drug uptake (Kidney [22]) | Drug uptake (Spleen [23]) | Ratio (Brain [39]) | further results
1 | CN(C)c1ccc(/C=C2\Nc3ccc(I)cc3C2=O)cc1 |  |  |  |  |  |  |  |  |  |  |  |  |  |  |  |  |  |  |  |  | Ki [1]: 31 nM; Ratio Ki (Homo sapiens [2]): 1.77; Activity (Homo sapiens [3]): Active; Ki [4]: 17 nM
2 | CN(C)c1ccc(C=C2C(=O)Nc3ccc([125I])cc32)cc1 | 10.56 % ID/g | 1.64 % ID/g | 1.76 % ID/g | 9.63 % ID/g | 0.66 % ID/g | 0.6 % ID/g | 3.83 % ID/g | 0.69 % ID/g | 3.37 % ID/g | 1.3 % ID/g | 3.66 % ID/g | 0.44 % ID/g | 1.77 % ID/g | 2.47 % ID/g | 9.43 % ID/g | 10.17 % ID/g | 12.37 % ID/g | 2.51 % ID/g | 1.2 % ID/g | 1.7 | Drug uptake (Kidney [24]): 5.04 % ID/g; Drug uptake (Stomach [25]): 3.57 %ID; Drug uptake (Intestine [26]): 2.54 % ID/g; Drug uptake (Pancreas [27]): 5.08 % ID/g; Drug uptake (Brain [28]): 1.43 % ID/g; Drug uptake (Stomach [29]): 0.91 %ID; Drug uptake (Heart [30]): 2.53 % ID/g; Drug uptake (Blood [31]): 1.07 % ID/g; Drug uptake (Stomach [32]): 3.52 %ID; Drug uptake (Intestine [33]): 1.57 % ID/g; Drug uptake (Pancreas [34]): 3.19 % ID/g; Drug uptake (Intestine [35]): 8.33 % ID/g; Drug uptake (Heart [36]): 0.61 % ID/g; Drug uptake (Stomach [37]): 1.64 %ID; Drug uptake (Intestine [38]): 12.11 % ID/g; Drug uptake (Liver [40]): 6.89 % ID/g; Drug uptake (Brain [41]): 2.1 % ID/g
3 | CNc1ccc(/C=C2\Nc3ccc([125I])cc3C2=O)cc1 | 12.4 % ID/g | 4.97 % ID/g | 2.25 % ID/g | 13.48 % ID/g | 7.75 % ID/g | 1.4 % ID/g | 19.35 % ID/g | 1.95 % ID/g | 9.67 % ID/g | 6.32 % ID/g | 6.97 % ID/g | 0.23 % ID/g | 7.5 % ID/g | 2.45 % ID/g | 11.59 % ID/g | 8.52 % ID/g | 9.51 % ID/g | 10.01 % ID/g | 14.05 % ID/g | 3.31 | Drug uptake (Kidney [24]): 18.16 % ID/g; Drug uptake (Stomach [25]): 2.92 %ID; Drug uptake (Intestine [26]): 4.24 % ID/g; Drug uptake (Pancreas [27]): 5.43 % ID/g; Drug uptake (Brain [28]): 0.74 % ID/g; Drug uptake (Stomach [29]): 0.77 %ID; Drug uptake (Heart [30]): 5.36 % ID/g; Drug uptake (Blood [31]): 3.3 % ID/g; Drug uptake (Stomach [32]): 2.96 %ID; Drug uptake (Intestine [33]): 2.29 % ID/g; Drug uptake (Pancreas [34]): 2.95 % ID/g; Drug uptake (Intestine [35]): 7.55 % ID/g; Drug uptake (Heart [36]): 2.65 % ID/g; Drug uptake (Stomach [37]): 1.7 %ID; Drug uptake (Intestine [38]): 9.86 % ID/g; Drug uptake (Liver [40]): 6.26 % ID/g; Drug uptake (Brain [41]): 1.75 % ID/g
4 | CN(C)c1ccc(C=C2C(=O)Nc3ccc(I)cc32)cc1 |  |  |  |  |  |  |  |  |  |  |  |  |  |  |  |  |  |  |  |  | Ki [1]: 4670 nM; Ratio Ki (Homo sapiens [2]): 7.8; Ki [4]: 599 nM
5 | CNc1ccc(-c2ccc3ccccc3n2)cc1 |  |  |  |  |  |  |  |  |  |  |  |  |  |  |  |  |  |  |  |  | Ratio EC50 (Homo sapiens [42]): 1.65
6 | CN(C)c1ccc(/N=N/c2nc3ccc(OCCOCCOCC[18F])cc3s2)cc1 |  |  |  |  |  |  |  |  |  |  |  |  |  |  |  |  |  |  |  | 1.23 | 
7 | CN(C)c1ccc(/C=C2\Nc3ccc([125I])cc3C2=O)cc1 | 11.29 % ID/g | 3.76 % ID/g | 1.39 % ID/g | 11.93 % ID/g | 2.17 % ID/g | 0.94 % ID/g | 11.38 % ID/g | 2.23 % ID/g | 4.46 % ID/g | 2.23 % ID/g | 3.2 % ID/g | 0.36 % ID/g | 4.7 % ID/g | 2.52 % ID/g | 9.85 % ID/g | 7.94 % ID/g | 9.81 % ID/g | 7.55 % ID/g | 4.08 % ID/g | 4 | Drug uptake (Kidney [24]): 16.57 % ID/g; Drug uptake (Stomach [25]): 3.8 %ID; Drug uptake (Intestine [26]): 3.17 % ID/g; Drug uptake (Pancreas [27]): 4.4 % ID/g; Drug uptake (Brain [28]): 0.63 % ID/g; Drug uptake (Stomach [29]): 0.96 %ID; Drug uptake (Heart [30]): 3.42 % ID/g; Drug uptake (Blood [31]): 2.06 % ID/g; Drug uptake (Stomach [32]): 2.1 %ID; Drug uptake (Intestine [33]): 2.13 % ID/g; Drug uptake (Pancreas [34]): 2.54 % ID/g; Drug uptake (Intestine [35]): 7.05 % ID/g; Drug uptake (Heart [36]): 2.11 % ID/g; Drug uptake (Stomach [37]): 1.67 %ID; Drug uptake (Intestine [38]): 10.7 % ID/g; Drug uptake (Liver [40]): 8.9 % ID/g; Drug uptake (Brain [41]): 1.4 % ID/g
